Measurements from patent publication US20070248955A1, “Use Of Genetic Polymorphisms To Predict Drug-Induced Hepatotoxicity” (NOVARTIS AG, priority 2003, published 2007).

Assay: Hepatotoxicity (fold increases of AST or ALT over the upper limit of normal) in the phase II clinical trial
Assay type: in vivo, human
Method: Relevant genetic polymorphisms were identified in a multicenter, randomized, double-masked placebo-controlled dose finding phase II trial of N-benzoyl-staurosporine, which was conducted in subjects with diabetic macular edema. The safety of N-benzoyl-staurosporine was evaluated in the subjects and additional pharmacokinetic information on was collected. […] Subjects were flagged as having experienced hepatotoxicity if either aspartate aminotransferase (AST) or alanine aminotransferase (ALT) had fold elevations over the upper limit of normal on visit 3, 4 or 5.
The diagnosis of hepatotoxicity can be accomplished using assays of serum enzyme levels. Serum enzyme assays indicative of liver dysfunction are well-known to those of skill in the medical arts and routine in hospital laboratories. For a definition of hepatotoxicity based upon serum levels of aspartate transaminase (AST) and used in the EXAMPLE: The definition of hepatotoxicity used in this analysis was based on fold increases in serum aspartate transaminase or alanine aminotransferase over the upper limit of normal (ULN) on visits 3, 4 or 5. The upper limit of normal for serum aspartate transaminase is 42 U/L for ages 3-64 and 55 U/L for ages 65 and up; for serum alanine aminotransferase the upper limit of normal is 48 U/L (Smithkline Beecham Clinical Laboratories Reference Alert Ranges). While an elevation of either enzyme at visit 3, 4 or 5 constituted hepatotoxicity, transaminase elevations were disregarded during subsequent visits when the drug was not being administered. Furthermore, subjects who had elevated liver function tests at baseline (visit 2) were not flagged as having experienced hepatotoxicity, regardless of the elevation in their enzyme levels following administration of the drug. Nine subjects were flagged as having experienced hepatotoxicity. Of these, six consented to clinical pharmacogenetic analysis.
Hepatotoxicity and N-benzoyl-staurosporine metabolism. The relationship between the occurrence of hepatotoxicity in the clinical trial and the dose of N-benzoyl-staurosporine administered was examined. The percentage of subjects per dose group that experienced hepatotoxicity are as follows: 3% for 50 mg/day, 8% for 100 mg/day and 14% of those that took 150 mg/day. While most of the subjects that experienced liver toxicity took the highest dose of N-benzoyl-staurosporine, the association between of N-benzoyl-staurosporine dose and hepatotoxicity is not significant (p=0.09; Fisher's Exact).

CO[C@@H]1[C@H](N(C)C(=O)c2ccccc2)C[C@H]2O[C@]1(C)n1c3ccccc3c3c4c(c5c6ccccc6n2c5c31)C(=O)NC4 [N-benzoyl-staurosporine]
percentage of subjects per dose group that experienced hepatotoxicity (50 mg/day, subjects with diabetic macular edema): 3%
percentage of subjects per dose group that experienced hepatotoxicity (100 mg/day, subjects with diabetic macular edema): 8%
percentage of subjects per dose group that experienced hepatotoxicity (150 mg/day, subjects with diabetic macular edema): 14%
Hepatotoxicity Yes (CPG samples (83 subjects, all arms incl. 0 mg/day)): 7%
Hepatotoxicity Yes (Trial samples (139 subjects, all arms incl. 0 mg/day)): 6%
subjects that experienced hepatotoxicity (of the 140 subjects enrolled in the clinical trial (all arms)): nine
safety profile (phase II trial, subjects with diabetic macular edema): good safety profile
